Source: patent US6441027B1, “Method of regulating the female reproductive system through angiogenesis inhibitors” (Children's Medical Center Corporation, priority 1996, dated 2002)

System: gravid uteri
Assay: Gravid uterine weight after single dose
Format: in vivo, mouse
Source text: C57BL/6 male and female mice greater than seven weeks old were obtained from Takonic (Germantown, N.Y.). The mice were acclimated for at least five days prior to mating and housed in a twelve hour on and twelve hour off light schedule. The mice were mated in the evenings and vaginal plugs were checked for the next morning. Mating in mice is normally detected by the occurrence of vaginal plugs, which are formed by a mixture of the secretions of the vesicular and coagulating glands of the male and usually fill the vagina from cervix to vulva. The day of plugging was labeled Embryonic day 0 (E0). All animal studies were conducted according to the protocols approved by the Animal Ethics Committee of Children's Hospital. Plugged female mice were randomized and received either AGM-1470 30 mg/kg s.c. or saline on E1, 7, or 14. The dependence of female reproductive system on angiogenesis was examined by treating sexually mature inseminated and cycling mice with selective angiogenesis inhibitor AGM-1470.
Gravid uteri and ovaries were resected enbloc and weighed. Gravid uterine weight (grams wet weight, mean SE, n=3/day) in the control group increased exponentially from E6 (0.20±0.01), to E9 (0.53±0.05), E13 (3.78±0.36), and E18 (12.87±0.62). Gravid uterine weights from mice treated with AGM-1470 on E1 had no weight increase after E9 [E6 (0.29±0.01), E9 (0.63±0.01), E13 (0.72±0.08, p<0.05), and E18 (0.68±0.02, p<0.05)]. Gravid uterine weights from mice treated with AGM-1470 on E7 increased initially but then regresses after E13 [E9 (0.71±0.01), E13 (2.03±0.14, p<0.05), and E18 (1.08±0.06, p<0.05)].

CO[C@@H]1[C@H](OC(=O)NC(=O)CCl)CC[C@]2(CO2)[C@H]1[C@@]1(C)O[C@@H]1CC=C(C)C [AGM-1470, O-chloroacetylcarbamoyl fumagillol]
gravid uterine weight (treated on E1, weighed E6, n=3): 0.29±0.01 grams wet weight | gravid uterine weight (treated on E1, weighed E9, n=3): 0.63±0.01 grams wet weight | gravid uterine weight (treated on E1, weighed E13, n=3): 0.72±0.08 grams wet weight | gravid uterine weight (treated on E1, weighed E18, n=3): 0.68±0.02 grams wet weight | gravid uterine weight (treated on E7, weighed E9, n=3): 0.71±0.01 grams wet weight | gravid uterine weight (treated on E7, weighed E13, n=3): 2.03±0.14 grams wet weight | gravid uterine weight (treated on E7, weighed E18, n=3): 1.08±0.06 grams wet weight
